We go through 2 compounds from ChEMBL document CHEMBL4368854, “Assessment of a bifendate derivative bearing a 6,7-dihydro-dibenzo[c,e]azepine scaffold as a potential anti-metastatic agent” (Medchemcomm, 2018).

SMILES strings stand for the structures. The source made the active and inactive calls. The rule behind the calls is not given here.

For assay [1], the system named is MDA-MB-231. Nature of the assay: Antimigratory activity against human MDA-MB-231 cells assessed as reduction in cell migration towards wound area at 45 uM measured up to 24 hrs by inverted microscopic analysis. It is filed as functional, cell-based.
Assay [2] relates to MDA-MB-231. Nature of the assay: Down regulation of MMP2 expression in human MDA-MB-231 cells after 24 hrs by Western blot analysis. It counts as functional, cell-based.
In assay [3] the test system is MDA-MB-231. The assay can be described thus: Anti-invasive activity against human MDA-MB-231 cells at 15 uM after 24 hrs by crystal violet staining based matrigel coated transwell assay relative to control. It counts as functional.
Assay [4] addresses Matrix metalloproteinase-9 (Homo sapiens) (UniProt P14780). The assay can be described thus: Inhibition of MMP9 activity in human MDA-MB-231 cells measured after 24 hrs by coomassie brilliant blue staining based gelatin zymographic method. It counts as cell-based.
The subject of assay [5] is MDA-MB-231. Nature of the assay: Anti-invasive activity against human MDA-MB-231 cells at 45 uM after 24 hrs by crystal violet staining based matrigel coated transwell assay relative to control. It counts as functional.
In assay [6] the test system is MDA-MB-231. The assay can be described thus: Antimigratory activity against human MDA-MB-231 cells at 15 uM after 24 hrs by crystal violet staining based transwell assay relative to control. It counts as functional.
Assay [7] concerns MDA-MB-231. The assay can be described thus: Cytotoxicity against human MDA-MB-231 cells after 72 hrs by MTT assay. It counts as functional, cell-based. As to conditions: MDA-MB-231, 72 h.
For assay [8], the target named is 72 kDa type IV collagenase (Homo sapiens) (UniProt P08253). The assay can be described thus: Inhibition of MMP2 activity in human MDA-MB-231 cells at 45 uM measured after 24 hrs by coomassie brilliant blue staining based gelatin zymographic method. It counts as cell-based.
72 kDa type IV collagenase (Homo sapiens), sequence (P08253 110-660 limits assumed): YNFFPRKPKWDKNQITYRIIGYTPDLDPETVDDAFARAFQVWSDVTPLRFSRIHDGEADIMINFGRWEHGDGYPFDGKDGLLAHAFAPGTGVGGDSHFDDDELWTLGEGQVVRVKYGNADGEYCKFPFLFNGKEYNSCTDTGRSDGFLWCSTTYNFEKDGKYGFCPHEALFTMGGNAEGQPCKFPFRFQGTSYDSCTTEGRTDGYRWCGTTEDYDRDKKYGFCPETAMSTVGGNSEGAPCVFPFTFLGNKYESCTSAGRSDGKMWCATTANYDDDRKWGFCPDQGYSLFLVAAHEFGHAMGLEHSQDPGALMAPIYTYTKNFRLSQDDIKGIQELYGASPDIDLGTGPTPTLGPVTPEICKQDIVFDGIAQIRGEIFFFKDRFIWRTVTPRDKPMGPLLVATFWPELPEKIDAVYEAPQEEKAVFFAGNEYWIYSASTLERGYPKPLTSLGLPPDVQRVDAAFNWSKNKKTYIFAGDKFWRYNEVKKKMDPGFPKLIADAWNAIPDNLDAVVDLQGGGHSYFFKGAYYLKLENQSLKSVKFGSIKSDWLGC
For assay [9] the target is unchanged. Nature of the assay: Inhibition of MMP2 activity in human MDA-MB-231 cells measured after 24 hrs by coomassie brilliant blue staining based gelatin zymographic method. It counts as cell-based.
Assay [10] relates to MDA-MB-231. The assay can be described thus: Down regulation of MMP9 expression in human MDA-MB-231 cells after 24 hrs by Western blot analysis. It is filed as functional, cell-based.
In assay [11] the test system is MDA-MB-231. The assay can be described thus: Antimigratory activity against human MDA-MB-231 cells assessed as reduction in cell migration towards wound area at 5 to 45 uM measured up to 24 hrs by inverted microscopic analysis. It counts as functional, cell-based.
Assay [12] deals with MDA-MB-231. The assay can be described thus: Antimigratory activity against human MDA-MB-231 cells at 45 uM after 24 hrs by crystal violet staining based transwell assay relative to control. It counts as functional.
For assay [13], the target named is Matrix metalloproteinase-9 (Homo sapiens) (UniProt P14780). Nature of the assay: Inhibition of MMP9 activity in human MDA-MB-231 cells at 45 uM measured after 24 hrs by coomassie brilliant blue staining based gelatin zymographic method. It is filed as cell-based.
Matrix metalloproteinase-9 (Homo sapiens), sequence (P14780 whole entry): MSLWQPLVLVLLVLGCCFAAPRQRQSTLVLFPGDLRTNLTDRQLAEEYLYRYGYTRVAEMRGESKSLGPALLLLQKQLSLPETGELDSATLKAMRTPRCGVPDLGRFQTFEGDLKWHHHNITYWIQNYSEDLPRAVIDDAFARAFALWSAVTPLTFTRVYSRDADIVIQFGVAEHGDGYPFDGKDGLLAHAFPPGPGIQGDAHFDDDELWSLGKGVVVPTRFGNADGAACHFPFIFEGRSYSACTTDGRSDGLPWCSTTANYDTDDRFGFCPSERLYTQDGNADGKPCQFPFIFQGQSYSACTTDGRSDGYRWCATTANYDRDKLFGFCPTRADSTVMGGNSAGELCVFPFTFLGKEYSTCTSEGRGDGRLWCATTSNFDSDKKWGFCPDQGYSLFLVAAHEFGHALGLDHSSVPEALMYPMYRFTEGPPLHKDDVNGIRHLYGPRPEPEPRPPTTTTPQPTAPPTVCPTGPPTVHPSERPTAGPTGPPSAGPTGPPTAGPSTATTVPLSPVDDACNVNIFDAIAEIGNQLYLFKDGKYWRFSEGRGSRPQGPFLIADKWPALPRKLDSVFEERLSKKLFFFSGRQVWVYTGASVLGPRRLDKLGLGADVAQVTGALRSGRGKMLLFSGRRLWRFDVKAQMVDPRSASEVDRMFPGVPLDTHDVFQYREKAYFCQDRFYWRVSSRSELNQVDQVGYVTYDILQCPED

`COC(=O)c1cc(OC)c2c(c1-c1c(C(=O)OC)cc(OC)c3c1OCO3)OCO2`: the outcome with MDA-MB-231 [1] was Active.

With `COc1cc2c(c3c1OCO3)-c1c(cc(OC)c3c1OCO3)CN(CCc1ccc3c(c1)OCO3)C2`, the Activity entry with MDA-MB-231 [2] was “Dose-dependent effect”; in the assay on MDA-MB-231 [3], “<=54.4%”; in the assay with MDA-MB-231 [5], 71.2%; with MDA-MB-231 [6], 32.9%; with MDA-MB-231 [10] it was “Dose-dependent effect”; in the assay on MDA-MB-231 [12], 47.5%. The inhibition entry in assay [4] was “Dose-dependent effect”; in assay [8], 56.9%; in [9] it was “Dose-dependent effect”; in assay [13] it was 30.8%. The IC50 in the assay with MDA-MB-231 [7] was determined as 88 µM. The result with MDA-MB-231 [11] was Active.
